Data on nine compounds can be found in US20180000085A1, “USE OF PICOLINAMIDE COMPOUNDS WITH FUNGICIDAL ACTIVITY” (DOW AGROSCIENCES LLC, priority 2014, published 2018).

One assay has as its system Zymoseptoria tritici. Put plainly: Leaf blotch of wheat (SEPTTR) disease control on wheat seedlings. In kind it is in vivo. Details: key to SEPTTR 1DP, HV activity at 100 ppm (% control rating) / SEPTTR 3DC, HV activity at 100 ppm (% control rating) / SEPTTR disease control, 1DP / SEPTTR disease control, 3DC / SEPTTR 1DP disease control rating, HV activity / SEPTTR 3DC disease control rating, HV activity / SEPTTR 3DC, LV activity at 125.1 g/H (% Control rating) / SEPTTR 1DP, LV activity at 125.1 g/H (% Control rating) / SEPTTR 1DP disease control rating, LV activity at 125.1 g/H / SEPTTR 3DC disease control rating, LV activity at 125.1 g/H / SEPTTR 3DC disease control rating, HV activity at 100 ppm / SEPTTR 1DP disease control rating, HV activity at 100 ppm / HV activity at 100 ppm SEPTTR 3DC (disease control rating) / HV activity at 100 ppm SEPTTR 1DP (disease control rating) / LV activity at 125.1 g/H SEPTTR 1DP (disease control rating) / LV activity at 125.1 g/H SEPTTR 3DC (disease control rating): A: > 80; B: ≤ 80; C: Not Tested; D: No Activity Observed in the Reported Assay. Particulars: for SEPTTR 1DP disease control rating, HV activity at 100 ppm / SEPTTR 3DC disease control rating, HV activity at 100 ppm: high volume application; for SEPTTR 1DP disease control rating, HV activity at 100 ppm / SEPTTR 1DP disease control rating, LV activity at 125.1 g/H: 1 day protectant; for SEPTTR 3DC disease control rating, HV activity at 100 ppm / SEPTTR 3DC disease control rating, LV activity at 125.1 g/H: 3 day curative; for SEPTTR 1DP disease control rating, HV activity / SEPTTR 3DC disease control rating, HV activity: HV application at 100 ppm, wheat leaf blotch; for SEPTTR 1DP disease control rating, HV activity: 1 Day Protectant; for SEPTTR 3DC disease control rating, HV activity: 3 Day Curative; for SEPTTR 1DP disease control rating, LV activity at 125.1 g/H / SEPTTR 3DC disease control rating, LV activity at 125.1 g/H: low volume application. On the procedure: (§1) All fungicides were evaluated using the aforementioned method for their activity vs. all target diseases, unless stated otherwise. Wheat leaf blotch and brown rust activity were also evaluated using track spray applications, in which case the fungicides were formulated as EC formulations, containing 0.1% Trycol 5941 in the spray solutions. Wheat plants (variety Yuma) were grown from seed in a greenhouse in 50% mineral soil/50% soil-less Metro mix until the first leaf was fully emerged, with 7-10 seedlings per pot. These plants were inoculated with an aqueous spore suspension of Zymoseptoria tritici either prior to or after fungicide treatments. After inoculation the plants were kept in 100% relative humidity (one day in a dark dew chamber followed by two to three days in a lighted dew chamber at 20° C.) to permit spores to germinate and infect the leaf. The plants were then transferred to a greenhouse set at 20° C. for disease to develop. When disease symptoms were fully expressed on the 1st leaves of untreated plants, infection levels were assessed on a scale of 0 to 100 percent disease severity. Percent disease control was calculated using the ratio of disease severity on treated plants relative to untreated plants.

The next assay deals with Puccinia triticina. Put plainly: Wheat brown rust (PUCCRT) disease control on wheat seedlings. In kind it is in vivo. Details: key to PUCCRT 3DC, HV activity at 100 ppm (% control rating) / PUCCRT disease control, 3DC / PUCCRT 1DP disease control rating, HV activity / PUCCRT 3DC disease control rating, HV activity / PUCCRT 3DC, LV activity at 125.1 g/H (% Control rating) / PUCCRT 1DP, LV activity at 125.1 g/H (% Control rating) / PUCCRT 3DC disease control rating, LV activity at 125.1 g/H / PUCCRT 1DP disease control rating, LV activity at 125.1 g/H / PUCCRT 3DC disease control rating, HV activity at 100 ppm / PUCCRT 1DP disease control rating, HV activity at 100 ppm / HV activity at 100 ppm PUCCRT 3DC (disease control rating) / LV activity at 125.1 g/H PUCCRT 1DP (disease control rating) / LV activity at 125.1 g/H PUCCRT 3DC (disease control rating): A: > 80; B: ≤ 80; C: Not Tested; D: No Activity Observed in the Reported Assay. As to conditions: for PUCCRT 1DP disease control rating, HV activity at 100 ppm / PUCCRT 3DC disease control rating, HV activity at 100 ppm: high volume application; for PUCCRT 1DP disease control rating, HV activity at 100 ppm / PUCCRT 1DP disease control rating, LV activity at 125.1 g/H: 1 day protectant; for PUCCRT 3DC disease control rating, HV activity at 100 ppm / PUCCRT 3DC disease control rating, LV activity at 125.1 g/H: 3 day curative; for PUCCRT 1DP disease control rating, HV activity / PUCCRT 3DC disease control rating, HV activity: HV application at 100 ppm, wheat brown rust; for PUCCRT 1DP disease control rating, HV activity: 1 Day Protectant; for PUCCRT 3DC disease control rating, HV activity: 3 Day Curative; for PUCCRT 1DP disease control rating, LV activity at 125.1 g/H / PUCCRT 3DC disease control rating, LV activity at 125.1 g/H: low volume application. On the procedure: as §1, with “plants. Example B: Evaluation of Fungicidal Activity: Wheat Brown Rust (Puccinia triticina; Synonym: Puccinia recondita f. sp. Tritici; Bayer Code PUCCRT) Wheat plants (variety Yuma) were grown from seed in a greenhouse in 50% mineral soil/50% soil-less Metro mix until the first leaf was fully emerged, with 7-10 seedlings per pot. These plants were inoculated with an aqueous spore suspension of Puccinia triticina either prior to or after fungicide treatments. […] The plants were then transferred to a greenhouse set at 24° C. for disease to develop. Fungicide formulation, application and disease assessment followed the procedures as described in the Example A.” for “plants.”

Take `COc1ccnc(C(=O)N[C@@H](C)C(=O)O[C@@H](C)[C@H](Oc2ccc(C)cc2Cl)C2CC2)c1O` [Cmpd 1005]: in the assay on Zymoseptoria tritici, the “SEPTTR 1DP disease control rating, HV activity at 100 ppm” value is “B (≤ 80)” and the “SEPTTR 3DC disease control rating, HV activity at 100 ppm” value is “B (≤ 80)”. Besides, in the assay with Puccinia triticina, the “PUCCRT 1DP disease control rating, HV activity at 100 ppm” value was “A (> 80)” and the “PUCCRT 3DC disease control rating, HV activity at 100 ppm” value is on record as “A (> 80)”.

On to `COc1ccnc(C(=O)N[C@@H](C)C(=O)O[C@@H](C)[C@@H](Oc2ccccc2)C(C)C)c1O` [Cmpd 347], for which, in the assay with Zymoseptoria tritici, the “SEPTTR 1DP disease control rating, HV activity” value is recorded as “B (≤ 80)” and the “SEPTTR 3DC disease control rating, HV activity” value is recorded as “B (≤ 80)”. For the same compound, in the assay with Puccinia triticina, the “PUCCRT 1DP disease control rating, HV activity” value is listed as “B (≤ 80)” and the “PUCCRT 3DC disease control rating, HV activity” value is “A (> 80)”.

Regarding `COc1ccnc(C(=O)N[C@@H](C)C(=O)O[C@@H](C)[C@H](OCC2CC2)C2CCCCC2)c1O` [Cmpd 816], in the assay with Zymoseptoria tritici, the “SEPTTR 1DP disease control rating, HV activity at 100 ppm” value was “B (≤ 80)” and the “SEPTTR 3DC disease control rating, HV activity at 100 ppm” value is “B (≤ 80)”. Besides, in the assay on Puccinia triticina, the “PUCCRT 1DP disease control rating, HV activity at 100 ppm” value was “A (> 80)” and the “PUCCRT 3DC disease control rating, HV activity at 100 ppm” value was “B (≤ 80)”.

Turning to `CCC(CC)C(Oc1cc(F)cc(Cl)c1)C(C)OC(=O)C(CC(C)C)NC(=O)c1nccc(OC)c1OCOC(C)=O` (stereo not drawn) [Cmpd 683], in the assay on Zymoseptoria tritici, the “SEPTTR 1DP disease control rating, LV activity at 125.1 g/H” value is given as “D” and the “SEPTTR 3DC disease control rating, LV activity at 125.1 g/H” value is listed as “B (≤ 80)”. For the same compound, in the assay on Puccinia triticina, the “PUCCRT 1DP disease control rating, LV activity at 125.1 g/H” value is “D” and the “PUCCRT 3DC disease control rating, LV activity at 125.1 g/H” value is listed as “D”.

Regarding `CCCOC(CC)C(Oc1ccccc1)C(C)OC(=O)C(CC(C)C)NC(=O)c1nccc(OC)c1OC(C)=O` (stereo not drawn) [Cmpd 452], in the assay on Zymoseptoria tritici, the “SEPTTR 1DP disease control rating, HV activity” value is “B (≤ 80)” and the “SEPTTR 3DC disease control rating, HV activity” value is “B (≤ 80)”. In addition, in the assay on Puccinia triticina, the “PUCCRT 1DP disease control rating, HV activity” value is listed as “A (> 80)” and the “PUCCRT 3DC disease control rating, HV activity” value is listed as “A (> 80)”.

On to `COc1ccnc(C(=O)N[C@@H](C)C(=O)O[C@H](C)[C@@H](Oc2ccccc2)c2ccccc2)c1O` [Cmpd 350], for which, in the assay with Zymoseptoria tritici, the “SEPTTR 1DP disease control rating, HV activity” value is listed as “D” and the “SEPTTR 3DC disease control rating, HV activity” value is recorded as “B (≤ 80)”. In addition, in the assay with Puccinia triticina, the “PUCCRT 1DP disease control rating, HV activity” value was “D” and the “PUCCRT 3DC disease control rating, HV activity” value is “A (> 80)”.

On to `CCC(CC)[C@H](Oc1cccc(F)c1)[C@H](C)OC(=O)[C@H](C)NC(=O)c1nccc(OC)c1O` [Cmpd 419], for which, in the assay on Zymoseptoria tritici, the “SEPTTR 1DP disease control rating, HV activity” value is “B (≤ 80)” and the “SEPTTR 3DC disease control rating, HV activity” value is listed as “B (≤ 80)”. Besides, in the assay with Puccinia triticina, the “PUCCRT 1DP disease control rating, HV activity” value was “A (> 80)” and the “PUCCRT 3DC disease control rating, HV activity” value is “D”.

In the case of `CCC(CC)C(Oc1ccc(Cl)cc1)C(C)OC(=O)C(C)NC(=O)c1nccc(OC)c1OC(C)=O` (stereo not drawn) [Cmpd 674], in the assay on Zymoseptoria tritici, the “SEPTTR 1DP disease control rating, LV activity at 125.1 g/H” value is “A (> 80)” and the “SEPTTR 3DC disease control rating, LV activity at 125.1 g/H” value was “A (> 80)”. In the assay with Puccinia triticina, the “PUCCRT 1DP disease control rating, LV activity at 125.1 g/H” value is “A (> 80)” and the “PUCCRT 3DC disease control rating, LV activity at 125.1 g/H” value is “B (≤ 80)”.

`CCC(CC)C(Oc1ccc(C(F)(F)F)cc1)C(C)OC(=O)C(C)NC(=O)c1nccc(OC)c1O` (stereo not drawn) [Cmpd 385]: in the assay with Zymoseptoria tritici, the “SEPTTR 1DP disease control rating, HV activity” value was “D” and the “SEPTTR 3DC disease control rating, HV activity” value is “D”. Further, in the assay with Puccinia triticina, the “PUCCRT 1DP disease control rating, HV activity” value is “B (≤ 80)” and the “PUCCRT 3DC disease control rating, HV activity” value is reported as “A (> 80)”.
